According to patent publication US20230391748A1, “BICYCLIC INHIBITORS OF IRAK” (priority 2022, published 2023):
pIC50: −log10 of the molar value.

Legend:
IRAK4 = IRAK4 (Homo sapiens (Human), UniProt Q9NWZ3); assay: IRAK4 ADP-Glo Assay; format: biochemical; details: MBP substrate
Method in brief: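 Human IRAK4 kinase reaction with MBP substrate plus ATP in Tris-HCl/MgCl2/BSA/DTT buffer, pH 7.4, run 60 min at room temperature or 30 min at 30 °C. ADP formed was measured by ADP-Glo luminescence after ATP depletion (40 min) and detection reagent (30 min).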

IL23p19 in THP-1 Cells = assay: LPS Induced IL23p19 in THP-1 Cells (with IFNγ Primed) Assay; format: cell-based; details: Homo sapiens, THP-1, 18 h, read-out: IL23 (THP, LPS) (IC50, μM)
Method in brief: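 THP-1 cells (50K/well) primed with IFNγ (50 ng/mL) about 18 h, then given compound and stimulated with LPS for 18 h at 37 °C. Secreted IL-23p19 measured by sandwich ELISA with chemiluminescent read-out, giving EC50. Cell Titer Glo used on the remaining cells for toxicity.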

TNF-α in human PBMCs = assay: R848-induced TNF-α in human PBMCs Assay; format: cell-based; details: Homo sapiens, PBMC, 4 h, read-out: TNFα (PBMC, R848) (IC50, μM)
Method in brief: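 Human PBMCs at 200K/well were pretreated with compound, then R848-stimulated for 4 h at 37 °C, 5% CO2. Supernatant TNF-α quantified by chemiluminescent ELISA; EC50 from curve fitting.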

[1] = system: TNF-α in Human Primary Monocyte-Derived Dendritic Cells; assay: Gardiquimod-Induced TNF-α in Human Primary Monocyte-Derived Dendritic Cells; format: cell-based; details: Dendritic cell, IFNγ-primed monocyte-derived dendritic cells, 4 μg/ml Gardiquimod, 6 hours, TNF-α ELISA, read-out: TNFα (DC, GARD) (IC50)
Method in brief: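 Monocytes differentiated 7 days with GM-CSF and IL-4, then primed 24 h with 50 ng/ml IFN-γ. Compound added 1 h before 6 h stimulation with 4 μg/ml Gardiquimod, 0.5% DMSO final. Supernatant TNF-α measured by chemiluminescent ELISA; EC50 from curve fitting.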

Sequence of IRAK4 (Q9NWZ3 whole entry): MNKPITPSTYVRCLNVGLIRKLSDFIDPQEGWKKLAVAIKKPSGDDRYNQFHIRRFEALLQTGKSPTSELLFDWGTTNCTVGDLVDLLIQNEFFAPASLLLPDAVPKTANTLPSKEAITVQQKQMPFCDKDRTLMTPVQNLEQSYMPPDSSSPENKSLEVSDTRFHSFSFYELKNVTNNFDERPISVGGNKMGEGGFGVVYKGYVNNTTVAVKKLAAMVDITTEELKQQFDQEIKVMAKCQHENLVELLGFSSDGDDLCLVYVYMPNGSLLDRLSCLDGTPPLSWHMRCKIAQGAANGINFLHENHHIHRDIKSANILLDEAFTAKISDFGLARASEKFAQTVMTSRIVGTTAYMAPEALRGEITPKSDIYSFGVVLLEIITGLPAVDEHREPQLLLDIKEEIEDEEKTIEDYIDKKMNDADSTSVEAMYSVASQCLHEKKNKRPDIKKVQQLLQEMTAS

With CC(C)Oc1cc2c(O[C@@H]3CCCN(C(=O)CC#N)C3)ncc(-c3cnn(C4CCCC4)c3)c2cc1C(N)=O [Compound I-116, (R)-1-((1-(2-cyanoacetyl)piperidin-3-yl)oxy)-4-(1-cyclopentyl-1H-pyrazol-4-yl)-7-isopropoxyisoquinoline-6-carboxamide] as the compound, how does the pIC50 (IRAK4) read?
Its pIC50 is 8.11.

What about the IC50 (IL23p19 in THP-1 Cells) of the same compound?
The IC50 was 1.37 µM.

And the IC50 (TNF-α in human PBMCs)?
Its IC50 is 0.271 µM.

What about the pIC50 [1] of the same compound?
Its pIC50 is 6.66.

CC(C)Oc1cc2c(O[C@@H]3CCCN(C(=O)CC#N)C3)ncc(-c3cnn([C@H]4C[C@@H](N(C)C)C4)c3)c2cc1C(N)=O [Compound I-120, 1-(((R)-1-(2-cyanoacetyl)piperidin-3-yl)oxy)-4-(1-(cis-3-(dimethylamino)cyclobutyl)-1H-pyrazol-4-yl)-7-isopropoxyisoquinoline-6-carboxamide] was tested. Which pIC50 (IRAK4) did it give?
The pIC50 was 8.08.

And the IC50 (IL23p19 in THP-1 Cells)?
The IC50 was 2.83 µM.

What about the IC50 (TNF-α in human PBMCs) of the same compound?
Its IC50 is 0.227 µM.

What about the pIC50 [1] of the same compound?
Its pIC50 is 6.37.

Which results are given for CC(C)Oc1cc2c(OC[C@@H]3CCC(=O)N3)ncc(C#CC3(O)CCN(C(=O)OC(C)(C)C)CC3)c2cc1C(N)=O [Compound I-12, tert-butyl (S)-4-((6-carbamoyl-7-isopropoxy-1-((5-oxopyrrolidin-2-yl)methoxy)isoquinolin-4-yl)ethynyl)-4-hydroxypiperidine-1-carboxylate]?
pIC50 (IRAK4): 7.39; IC50 (IL23p19 in THP-1 Cells): 1.25 µM; IC50 (TNF-α in human PBMCs): 0.448 µM; pIC50 [1]: 5.22

Which results are given for CC(C)Oc1cc2c(OC[C@@H]3CC(F)(F)C(=O)N3)ncc(C#C[C@H]3CC[C@](C)(O)CC3)c2cc1C(N)=O [Compound I-60, 1-(((S)-4,4-difluoro-5-oxopyrrolidin-2-yl)methoxy)-4-(((1r,4S)-4-hydroxy-4-methylcyclohexyl)ethynyl)-7-isopropoxyisoquinoline-6-carboxamide]?
pIC50 (IRAK4): 8.03; IC50 (IL23p19 in THP-1 Cells): 0.0246 µM; IC50 (TNF-α in human PBMCs): 0.0778 µM; pIC50 [1]: 7.67

CC(C)Oc1cc2c(O[C@@H]3CCCNC3)ncc(C#CC3CCOCC3)c2cc1C(N)=O [Compound I-86, (R)-7-isopropoxy-1-(piperidin-3-yloxy)-4-((tetrahydro-2H-pyran-4-yl)ethynyl)isoquinoline-6-carboxamide] was tested. Which pIC50 (IRAK4) did it give?
Its pIC50 is 7.04.

What about the IC50 (IL23p19 in THP-1 Cells) of the same compound?
The IC50 was 5.29 µM.

And the IC50 (TNF-α in human PBMCs)?
Its IC50 is 1.74 µM.

What about the pIC50 [1] of the same compound?
The pIC50 was 5.99.

How did the pIC50 (IRAK4) turn out when CC(C)Oc1cc2c(OC[C@@H]3CCC(=O)N3)ncc(-c3cnn(C4CCN(C(=O)OC(C)(C)C)CC4)c3)c2cc1C(N)=O [Compound I-44, tert-butyl (S)-4-(4-(6-carbamoyl-7-isopropoxy-1-((5-oxopyrrolidin-2-yl)methoxy)isoquinolin-4-yl)-1H-pyrazol-1-yl)piperidine-1-carboxylate] was run?
Its pIC50 is 7.68.

What about the IC50 (IL23p19 in THP-1 Cells) of the same compound?
Its IC50 is 0.937 µM.

What about the IC50 (TNF-α in human PBMCs) of the same compound?
The IC50 was 0.727 µM.

And the pIC50 [1]?
Its pIC50 is 5.98.

Which results are given for CC(C)Oc1cc2c(OC[C@@H]3CCC(=O)N3)ncc(C#CCCN3CCOCC3)c2cc1C(N)=O [Compound I-8, (S)-7-isopropoxy-4-(4-morpholinobut-1-yn-1-yl)-1-((5-oxopyrrolidin-2-yl)methoxy)isoquinoline-6-carboxamide]?
pIC50 (IRAK4): 7.91; IC50 (IL23p19 in THP-1 Cells): 0.332 µM; IC50 (TNF-α in human PBMCs): 0.411 µM; pIC50 [1]: 6.50

CC(C)Oc1cc2c(OC[C@@H]3CC(F)(F)C(=O)N3)ncc(-c3cnn([C@H]4CC[C@](C)(O)CC4)c3)c2cc1C(N)=O [Compound I-78, 1-(((S)-4,4-difluoro-5-oxopyrrolidin-2-yl)methoxy)-4-(1-((1r,4S)-4-hydroxy-4-methylcyclohexyl)-1H-pyrazol-4-yl)-7-isopropoxyisoquinoline-6-carboxamide] was tested. Which pIC50 (IRAK4) did it give?
The pIC50 was 8.44.

What about the IC50 (IL23p19 in THP-1 Cells) of the same compound?
Its IC50 is 0.162 µM.

And the IC50 (TNF-α in human PBMCs)?
The IC50 was 0.234 µM.

And the pIC50 [1]?
The pIC50 was 6.19.

CC(C)Oc1cc2c(O[C@@H]3CCCN(C(=O)CC#N)C3)ncc(C#CCC3CCOCC3)c2cc1C(N)=O [Compound I-90, (R)-1-((1-(2-cyanoacetyl)piperidin-3-yl)oxy)-7-isopropoxy-4-(3-(tetrahydro-2H-pyran-4-yl)prop-1-yn-1-yl)isoquinoline-6-carboxamide] was tested. Which pIC50 (IRAK4) did it give?
Its pIC50 is 7.69.

What about the IC50 (IL23p19 in THP-1 Cells) of the same compound?
The IC50 was 1.42 µM.

What about the IC50 (TNF-α in human PBMCs) of the same compound?
The IC50 was 0.433 µM.

What about the pIC50 [1] of the same compound?
The pIC50 was 6.21.

With CC(C)Oc1cc2c(OC[C@@H]3CCC(=O)N3)ncc(C#CCN3CCOCC3)c2cc1C(N)=O [Compound I-7, (S)-7-isopropoxy-4-(3-morpholinoprop-1-yn-1-yl)-1-((5-oxopyrrolidin-2-yl)methoxy)isoquinoline-6-carboxamide] as the compound, how does the pIC50 (IRAK4) read?
Its pIC50 is 8.09.

And the IC50 (IL23p19 in THP-1 Cells)?
Its IC50 is 0.527 µM.

And the IC50 (TNF-α in human PBMCs)?
The IC50 was 0.402 µM.

What about the pIC50 [1] of the same compound?
The pIC50 was 6.42.

Which results are given for CC(C)Oc1cc2c(O[C@@H]3CCCN(C(=O)CC#N)C3)ncc(C#C[C@H]3CC[C@@](C)(O)CC3)c2cc1C(N)=O [Compound I-101, 1-(((R)-1-(2-cyanoacetyl)piperidin-3-yl)oxy)-4-(((1s,4S)-4-hydroxy-4-methylcyclohexyl)ethynyl)-7-isopropoxyisoquinoline-6-carboxamide]?
pIC50 (IRAK4): 7.86; IC50 (IL23p19 in THP-1 Cells): 0.27 µM; IC50 (TNF-α in human PBMCs): 3.33 µM; pIC50 [1]: 6.12

CC(C)Oc1cc2c(OC[C@@H]3CCC(=O)N3)ncc(-c3cnn(C4CCNCC4)c3)c2cc1C(N)=O [Compound I-45, (S)-7-isopropoxy-1-((5-oxopyrrolidin-2-yl)methoxy)-4-(1-(piperidin-4-yl)-1H-pyrazol-4-yl)isoquinoline-6-carboxamide] was tested. Which pIC50 (IRAK4) did it give?
The pIC50 was 7.73.

And the IC50 (IL23p19 in THP-1 Cells)?
The IC50 was 10.9 µM.

And the IC50 (TNF-α in human PBMCs)?
The IC50 was 10 µM.

And the pIC50 [1]?
Its pIC50 is 5.87.

CC(C)Oc1cc2c(O[C@@H]3CCCN(C(=O)CC#N)C3)ncc(C#CC3CN(C(=O)OC(C)(C)C)C3)c2cc1C(N)=O [Compound I-102, tert-butyl (R)-3-((6-carbamoyl-1-((1-(2-cyanoacetyl)piperidin-3-yl)oxy)-7-isopropoxyisoquinolin-4-yl)ethynyl)azetidine-1-carboxylate] was tested. Which pIC50 (IRAK4) did it give?
The pIC50 was 7.45.

And the IC50 (IL23p19 in THP-1 Cells)?
The IC50 was 0.16 µM.

What about the IC50 (TNF-α in human PBMCs) of the same compound?
The IC50 was 0.19 µM.

What about the pIC50 [1] of the same compound?
Its pIC50 is 7.20.

With CC(C)Oc1cc2c(OC[C@@H]3CC(F)(F)C(=O)N3)ncc(C#CC3CCN(C)CC3)c2cc1C(N)=O [Compound I-56, (S)-1-((4,4-difluoro-5-oxopyrrolidin-2-yl)methoxy)-7-isopropoxy-4-((1-methylpiperidin-4-yl)ethynyl)isoquinoline-6-carboxamide] as the compound, how does the pIC50 (IRAK4) read?
The pIC50 was 8.48.

And the IC50 (IL23p19 in THP-1 Cells)?
Its IC50 is 0.422 µM.

What about the IC50 (TNF-α in human PBMCs) of the same compound?
The IC50 was 0.136 µM.

What about the pIC50 [1] of the same compound?
Its pIC50 is 7.60.

Which results are given for COC1(OC)CC(C#Cc2cnc(O[C@@H]3CCCN(C(=O)CC#N)C3)c3cc(OC(C)C)c(C(N)=O)cc23)C1 [Compound I-105, (R)-1-((1-(2-cyanoacetyl)piperidin-3-yl)oxy)-4-((3,3-dimethoxycyclobutyl)ethynyl)-7-isopropoxyisoquinoline-6-carboxamide]?
pIC50 (IRAK4): 8.00; IC50 (IL23p19 in THP-1 Cells): 0.603 µM; IC50 (TNF-α in human PBMCs): 0.275 µM; pIC50 [1]: 6.54

How did the pIC50 (IRAK4) turn out when CC(C)Oc1cc2c(OC[C@@H]3CC(F)(F)C(=O)N3)ncc(-c3cnn(C4CCN(C(=O)OC(C)(C)C)CC4)c3)c2cc1C(N)=O [Compound I-74, tert-butyl (S)-4-(4-(6-carbamoyl-1-((4,4-difluoro-5-oxopyrrolidin-2-yl)methoxy)-7-isopropoxyisoquinolin-4-yl)-1H-pyrazol-1-yl)piperidine-1-carboxylate] was run?
Its pIC50 is 7.95.

And the IC50 (IL23p19 in THP-1 Cells)?
The IC50 was 0.395 µM.

What about the IC50 (TNF-α in human PBMCs) of the same compound?
Its IC50 is 0.141 µM.

And the pIC50 [1]?
The pIC50 was 6.31.

How did the pIC50 (IRAK4) turn out when CC(C)Oc1cc2c(OC[C@@H]3CC(F)(F)C(=O)N3)ncc(C#CC3CCOCC3)c2cc1C(N)=O [Compound I-49, (S)-1-((4,4-difluoro-5-oxopyrrolidin-2-yl)methoxy)-7-isopropoxy-4-((tetrahydro-2H-pyran-4-yl)ethynyl)isoquinoline-6-carboxamide] was run?
Its pIC50 is 8.12.

What about the IC50 (IL23p19 in THP-1 Cells) of the same compound?
Its IC50 is 0.273 µM.

And the IC50 (TNF-α in human PBMCs)?
The IC50 was 0.0853 µM.

What about the pIC50 [1] of the same compound?
Its pIC50 is 7.13.
